This test deals with recombinant human SAE enzyme (Homo sapiens (Human), UniProt Q9UBT2). As to the kind of experiment: SAE HTRF enzyme assay. The class given is biochemical. Summed up: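 HTRF read-out using Eu-cryptate anti-Flag and allophycocyanin anti-GST antibodies, added with EDTA stop buffer and read after 2 h at 24 °C. The preceding reaction ran 105 min at 24 °C: 0.11 nM recombinant SAE, 0.5 μM ATP, Sumo-Flag, Ubc9-GST, pH 7.5. Values given as single-concentration inhibition or IC50.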
For orientation: Time-resolved FRET reads energy transfer from a long-lived donor to a nearby acceptor.

Setting [1] is: SAE inhibition at compound concentration 0.111 μM.
[2] abbreviates: SAE inhibition, class symbols, legend in nM.

Molecules are shown by their SMILES. Bounds are passed on as bounds.

recombinant human SAE enzyme, sequence (Q9UBT2 whole entry): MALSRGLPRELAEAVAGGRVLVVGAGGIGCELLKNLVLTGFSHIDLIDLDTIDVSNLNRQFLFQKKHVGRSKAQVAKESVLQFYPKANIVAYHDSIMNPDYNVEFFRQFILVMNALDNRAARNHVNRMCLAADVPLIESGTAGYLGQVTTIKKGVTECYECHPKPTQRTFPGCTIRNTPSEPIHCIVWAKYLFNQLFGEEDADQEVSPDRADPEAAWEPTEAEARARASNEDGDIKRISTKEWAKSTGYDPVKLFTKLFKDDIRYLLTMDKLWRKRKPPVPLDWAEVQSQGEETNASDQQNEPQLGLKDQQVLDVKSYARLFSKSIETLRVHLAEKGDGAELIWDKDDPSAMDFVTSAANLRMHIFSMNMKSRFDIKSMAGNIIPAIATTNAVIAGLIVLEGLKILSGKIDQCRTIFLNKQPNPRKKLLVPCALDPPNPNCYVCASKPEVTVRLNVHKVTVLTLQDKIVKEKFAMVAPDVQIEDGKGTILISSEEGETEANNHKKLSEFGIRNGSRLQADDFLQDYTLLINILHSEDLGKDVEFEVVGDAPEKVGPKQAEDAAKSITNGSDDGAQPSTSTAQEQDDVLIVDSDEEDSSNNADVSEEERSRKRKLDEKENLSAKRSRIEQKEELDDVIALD
recombinant human SAE enzyme, sequence (Q9UBE0 whole entry partner): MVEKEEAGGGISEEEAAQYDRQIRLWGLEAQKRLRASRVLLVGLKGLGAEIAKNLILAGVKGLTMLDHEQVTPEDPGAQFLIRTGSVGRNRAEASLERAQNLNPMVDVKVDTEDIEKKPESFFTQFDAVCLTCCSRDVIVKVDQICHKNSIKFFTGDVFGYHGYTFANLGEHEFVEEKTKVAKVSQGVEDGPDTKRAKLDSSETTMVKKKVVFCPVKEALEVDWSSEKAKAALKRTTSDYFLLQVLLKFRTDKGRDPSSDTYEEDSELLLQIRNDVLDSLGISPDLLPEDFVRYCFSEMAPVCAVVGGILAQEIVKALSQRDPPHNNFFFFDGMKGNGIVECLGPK

The term IC50 denotes the concentration that inhibits the measured activity by half. For the compound `NS(=O)(=O)OC[C@H]1C[C@@H](Nc2ncncc2C(=O)c2cc(C3SCCc4ccc(Cl)cc43)cs2)[C@H](O)[C@@H]1O` (single isomer, unassigned) [I-278b, [(1R,2R,3S,4R)-4-{[5-({4-[(1R)-7-chloro-3,4-dihydro-1H-isothiochromen-1-yl]-2-thienyl}carbonyl)pyrimidin-4-yl]amino}-2,3-dihydroxycyclopentyl]methyl sulfamate or [(1R,2R,3S,4R)-4-{[5-({4-[(1S)-7-chloro-3,4-dihydro-1H-isothiochromen-1-yl]-2-thienyl}carbonyl)pyrimidin-4-yl]amino}-2,3-dihydroxycyclopentyl]methyl sulfamate], the “Percent Inhibition” value (Concentration 0.111 μM) is 99. In addition, the IC50 (class symbols A/B/C) is less than 10 nM.
For the compound `NS(=O)(=O)OC[C@H]1C[C@@H](Nc2ncncc2C(=O)c2cc([C@H]3NCCc4ccccc43)c(Cl)s2)C[C@@H]1O` (single isomer, unassigned) [I-279a, [(1R,2S,4R)-4-{[5-({5-chloro-4-[(1S)-1,2,3,4-tetrahydroisoquinolin-1-yl]-2-thienyl}carbonyl)pyrimidin-4-yl]amino}-2-hydroxycyclopentyl]methyl sulfamate or [(1R,2S,4R)-4-{[5-({5-chloro-4-[(1R)-1,2,3,4-tetrahydroisoquinolin-1-yl]-2-thienyl}carbonyl)pyrimidin-4-yl]amino}-2-hydroxycyclopentyl]methyl sulfamate], the “Percent Inhibition” value (Concentration 0.111 μM) was 100. Further, the IC50 (class symbols A/B/C) is less than 10 nM.
For `NS(=O)(=O)OC[C@H]1C[C@@H](Nc2ncncc2C(=O)c2cc([C@H]3NCCc4ccccc43)c(Cl)s2)C[C@@H]1O` (single isomer, unassigned) [I-279b, [(1R,2S,4R)-4-{[5-({5-chloro-4-[(1S)-1,2,3,4-tetrahydroisoquinolin-1-yl]-2-thienyl}carbonyl)pyrimidin-4-yl]amino}-2-hydroxycyclopentyl]methyl sulfamate or [(1R,2S,4R)-4-{[5-({5-chloro-4-[(1R)-1,2,3,4-tetrahydroisoquinolin-1-yl]-2-thienyl}carbonyl)pyrimidin-4-yl]amino}-2-hydroxycyclopentyl]methyl sulfamate], in that order: 84 and 10 to 100 nM.
In the case of `Cc1sc(C(=O)c2cncnc2N[C@@H]2C[C@H](COS(N)(=O)=O)[C@@H](O)C2)cc1[C@@H]1OCOc2ccccc21` (single isomer, unassigned) [I-280a, [(1R,2S,4R)-4-{[5-({4-[(4R)-4H-1,3-benzodioxin-4-yl]-5-methyl-2-thienyl}carbonyl)pyrimidin-4-yl]amino}-2-hydroxycyclopentyl]methyl sulfamate or [(1R,2S,4R)-4-{[5-({4-[(4S)-4H-1,3-benzodioxin-4-yl]-5-methyl-2-thienyl}carbonyl)pyrimidin-4-yl]amino}-2-hydroxycyclopentyl]methyl sulfamate], the “Percent Inhibition” value under setting [1] came to 75%. In addition, the IC50 under setting [2] fell in the range of 10 to 100 nM.
In the same order, the values of `Cc1sc(C(=O)c2cncnc2N[C@@H]2C[C@H](COS(N)(=O)=O)[C@@H](O)C2)cc1[C@@H]1OCOc2ccccc21` (single isomer, unassigned) [I-280b, [(1R,2S,4R)-4-{[5-({4-[(4R)-4H-1,3-benzodioxin-4-yl]-5-methyl-2-thienyl}carbonyl)pyrimidin-4-yl]amino}-2-hydroxycyclopentyl]methyl sulfamate or [(1R,2S,4R)-4-{[5-({4-[(4S)-4H-1,3-benzodioxin-4-yl]-5-methyl-2-thienyl}carbonyl)pyrimidin-4-yl]amino}-2-hydroxycyclopentyl]methyl sulfamate] are 100% and less than 10 nM.
